Experimental data reported in patent US12213963B2, “Topical formulation of disease-modifying antirheumatic drug (DMARDs) for the treatment of rheumatoid arthritis, melanoma, squamous cell carcinoma, atopic dermatitis, and psoriasis” (priority 2022, dated 2025).

Assay: Solubility of leflunomide in oils, surfactants and co-surfactants
Assay type: physicochemical
Experimental: Solubility of leflunomide was investigated in various oils, surfactants and co-surfactants. The selected excipients showing good solubility were further screened using turbidimetric method to check the emulsification efficiency of the system. Water titration method was used to select combination of oil, surfactant and co surfactant which provided clear systems with water. Briefly, the drug was dissolved in the oil by vortexing. Surfactant and co-surfactants were added to the oil phase and further titrated with water to check the ease of emulsification. The globule size of these systems was determined. Capryol® 90 and Capmul® PG2L were selected as the oil component. The solubility of the drug was highest in these oils and adequate to achieve the required drug loading. […] Out of the various gelling agents screened, Carbopol® 974P was selected because it formed uniform gel with good texture and consistency.

drug solubility in co-surfactant PEG 400: higher drug solubility | drug solubility in surfactants Tween 20 and Kolliphor RH 40: high drug solubility | solubility of the drug in oils Capryol 90 and Capmul PG2L (compared with other oils screened): highest
Structure (SMILES): Cc1oncc1C(=O)Nc1ccc(C(F)(F)F)cc1 [leflunomide]
